Results from patent US7709636B2, “Pyrazole sulfonylurea compound and herbicide” (Nissan Chemical Industries, Ltd., priority 2004, dated 2010).

Columns and labels:
[1] = test system: Monochoria vaginalis; assay: Herbicidal effect test in submerged condition by treatment before weed-generation (1); format: in vivo; conditions: 0.64 g/a, water surface treated on day of sowing, 3 weeks after treatment
Outline: (§1)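 Pre-emergence water-surface application of diluted wettable-powder formulation at a predetermined rate, same day as sowing, in flooded alluvial soil (4 cm water) with transplanted 2.5-leaf rice. Grown 3 weeks at 25 to 30° C in greenhouse; rated 0–5 by herbicidal rate.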

[2] = test system: Echinochloa crus-galli; assay: as above; format: in vivo; conditions: 0.64 g/a, water surface treated on day of sowing, 3 weeks after treatment
Outline: as §1

[3] = test system: Scirpus juncoides; assay: as above; format: in vivo; conditions: 0.64 g/a, water surface treated on day of sowing, 3 weeks after treatment
Outline: as §1

[4] = test system: Monochoria vaginalis; assay: Herbicidal effect test in submerged condition by treatment during weed-growth stage (1); format: in vivo; conditions: 0.64 g/a, treated at 1st to 2nd leaf stage, 3 weeks after treatment
Outline: (§2)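 Paddy-soil pots flooded to 4 cm water depth were sown and grown in a greenhouse at 25 to 30° C until weeds reached 1st to 2nd leaf stage. A wettable powder diluted in water to a predetermined formulation amount was applied to the water surface. Herbicidal effect was scored 3 weeks after treatment against set criteria.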

[5] = test system: Echinochloa crus-galli; assay: as above; format: in vivo; conditions: 0.64 g/a, treated at 1st to 2nd leaf stage, 3 weeks after treatment
Outline: as §2

[6] = test system: Scirpus juncoides; assay: as above; format: in vivo; conditions: 0.64 g/a, treated at 1st to 2nd leaf stage, 3 weeks after treatment
Outline: as §2

[7] = test system: Stellaria media; assay: Herbicidal effect test by soil treatment; format: in vivo; conditions: 1.6 g/a, 3 weeks after treatment
Outline: (§3)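 Pre-emergence soil application: wettable powder formulation, water-diluted to set dose, sprayed evenly over soil surface after sowing; seeds under ~1.5 cm sterilized diluvial soil. Effect rated at 3 wk by criteria scale.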

[8] = test system: soybean (Glycine max); assay: Herbicidal effect test by soil treatment; format: in vivo; conditions: 1.6 g/a, 3 weeks after treatment
Outline: as §3

[9] = test system: Chenopodium album; assay: Herbicidal effect test by soil treatment; format: in vivo; conditions: 1.6 g/a, 3 weeks after treatment
Outline: as §3

[10] = test system: Setaria viridis; assay: Herbicidal effect test by soil treatment; format: in vivo; conditions: 1.6 g/a, 3 weeks after treatment
Outline: as §3

[11] = test system: Avena fatua; assay: Herbicidal effect test by soil treatment; format: in vivo; conditions: 1.6 g/a, 3 weeks after treatment
Outline: as §3

[12] = test system: Black-grass; assay: Herbicidal effect test by soil treatment; format: in vivo; conditions: 1.6 g/a, 3 weeks after treatment
Outline: as §3

[13] = test system: Ambrosia elatior; assay: Herbicidal effect test by soil treatment; format: in vivo; conditions: 1.6 g/a, 3 weeks after treatment
Outline: as §3

[14] = test system: Beta vulgaris (beet); assay: Herbicidal effect test by soil treatment; format: in vivo; conditions: 1.6 g/a, 3 weeks after treatment
Outline: as §3

[15] = test system: Echinochloa crus-galli; assay: Herbicidal effect test by soil treatment; format: in vivo; conditions: 1.6 g/a, 3 weeks after treatment
Outline: as §3

[16] = test system: Triticum aestivum (wheat); assay: Herbicidal effect test by soil treatment; format: in vivo; conditions: 1.6 g/a, 3 weeks after treatment
Outline: as §3

[17] = test system: corn (Zea mays); assay: Herbicidal effect test by soil treatment; format: in vivo; conditions: 1.6 g/a, 3 weeks after treatment
Outline: as §3

[18] = test system: Amaranthus retroflexus; assay: Herbicidal effect test by soil treatment; format: in vivo; conditions: 1.6 g/a, 3 weeks after treatment
Outline: as §3

[19] = test system: Abutilon avicennae; assay: Herbicidal effect test by soil treatment; format: in vivo; conditions: 1.6 g/a, 3 weeks after treatment
Outline: as §3

[20] = test system: Polygonum blumei; assay: Herbicidal effect test by soil treatment; format: in vivo; conditions: 1.6 g/a, 3 weeks after treatment
Outline: as §3

[21] = test system: Digitaria adscendes; assay: Herbicidal effect test by soil treatment; format: in vivo; conditions: 1.6 g/a, 3 weeks after treatment
Outline: as §3

[22] = test system: Stellaria media; assay: Herbicidal effect test by foliage treatment; format: in vivo; conditions: 1.6 g/a; foliage treatment after growth of 14 days; 3 weeks after treatment
Outline: (§4)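 Post-emergence foliar spray: plants raised 14 d in greenhouse (25–30° C) from seed in sterilized diluvial soil, sprayed with diluted wettable powder formulation, injury rated visually at 3 wk.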

[23] = test system: soybean (Glycine max); assay: Herbicidal effect test by foliage treatment; format: in vivo; conditions: 1.6 g/a; foliage treatment after growth of 14 days; 3 weeks after treatment
Outline: as §4

[24] = test system: Chenopodium album; assay: Herbicidal effect test by foliage treatment; format: in vivo; conditions: 1.6 g/a; foliage treatment after growth of 14 days; 3 weeks after treatment
Outline: as §4

[25] = test system: Setaria viridis; assay: Herbicidal effect test by foliage treatment; format: in vivo; conditions: 1.6 g/a; foliage treatment after growth of 14 days; 3 weeks after treatment
Outline: as §4

[26] = test system: Avena fatua; assay: Herbicidal effect test by foliage treatment; format: in vivo; conditions: 1.6 g/a; foliage treatment after growth of 14 days; 3 weeks after treatment
Outline: as §4

[27] = test system: Black-grass; assay: Herbicidal effect test by foliage treatment; format: in vivo; conditions: 1.6 g/a; foliage treatment after growth of 14 days; 3 weeks after treatment
Outline: as §4

[28] = test system: Ambrosia elatior; assay: Herbicidal effect test by foliage treatment; format: in vivo; conditions: 1.6 g/a; foliage treatment after growth of 14 days; 3 weeks after treatment
Outline: as §4

[29] = test system: Beta vulgaris (beet); assay: Herbicidal effect test by foliage treatment; format: in vivo; conditions: 1.6 g/a; foliage treatment after growth of 14 days; 3 weeks after treatment
Outline: as §4

[30] = test system: Echinochloa crus-galli; assay: Herbicidal effect test by foliage treatment; format: in vivo; conditions: 1.6 g/a; foliage treatment after growth of 14 days; 3 weeks after treatment
Outline: as §4

[31] = test system: Triticum aestivum (wheat); assay: Herbicidal effect test by foliage treatment; format: in vivo; conditions: 1.6 g/a; foliage treatment after growth of 14 days; 3 weeks after treatment
Outline: as §4

[32] = test system: corn (Zea mays); assay: Herbicidal effect test by foliage treatment; format: in vivo; conditions: 1.6 g/a; foliage treatment after growth of 14 days; 3 weeks after treatment
Outline: as §4

[33] = test system: Amaranthus retroflexus; assay: Herbicidal effect test by foliage treatment; format: in vivo; conditions: 1.6 g/a; foliage treatment after growth of 14 days; 3 weeks after treatment
Outline: as §4

[34] = test system: Abutilon avicennae; assay: Herbicidal effect test by foliage treatment; format: in vivo; conditions: 1.6 g/a; foliage treatment after growth of 14 days; 3 weeks after treatment
Outline: as §4

[35] = test system: Polygonum blumei; assay: Herbicidal effect test by foliage treatment; format: in vivo; conditions: 1.6 g/a; foliage treatment after growth of 14 days; 3 weeks after treatment
Outline: as §4

[36] = test system: Digitaria adscendes; assay: Herbicidal effect test by foliage treatment; format: in vivo; conditions: 1.6 g/a; foliage treatment after growth of 14 days; 3 weeks after treatment
Outline: as §4

[37] = test system: direct sown rice; assay: Herbicidal effect test by soil treatment; format: in vivo, Oryza sativa; conditions: 1.6 g/a, 3 weeks after treatment
Outline: as §3

[38] = test system: direct sown rice; assay: Herbicidal effect test by foliage treatment; format: in vivo, Oryza sativa; conditions: 1.6 g/a; foliage treatment after growth of 14 days; 3 weeks after treatment
Outline: as §4

With COc1cc(OC)nc(NC(=O)NS(=O)(=O)c2c(C3=NOCC(C)(C)O3)c(C)nn2C)n1 [Compound 7, N-((4,6-dimethoxypyrimidin-2-yl)aminocarbonyl)-4-(5,5-dimethyl-5H,6H-1,4,2-dioxadin-3-yl)-1,3-dimethylpyrazole-5-sulfonamide] the “herbicidal effect, C: Monochoria vaginalis” value [1] was 5 (Herbicidal rate 90% or more (almost complete death)), the “herbicidal effect, A: Echinochloa crus-galli” value [2] was 5 (Herbicidal rate 90% or more (almost complete death)) and the “herbicidal effect, B: Scirpus juncoides” value [3] was 5 (Herbicidal rate 90% or more (almost complete death)). For the same molecule, the “herbicidal effect, C: Monochoria vaginalis” value [4] was 5 (Herbicidal rate 90% or more (almost complete death)), the “herbicidal effect, A: Echinochloa crus-galli” value [5] was 5 (Herbicidal rate 90% or more (almost complete death)) and the “herbicidal effect, B: Scirpus juncoides” value [6] was 5 (Herbicidal rate 90% or more (almost complete death)). For the same molecule, the “herbicidal effect, M: Stellaria media” value [7] was 5 (Herbicidal rate 90% or more (almost complete death)), the “herbicidal effect, c: soybean (Glycine max)” value [8] was 3 (Herbicidal rate 40% or more and less than 70%) and the “herbicidal effect, K: Chenopodium album” value [9] was 5 (Herbicidal rate 90% or more (almost complete death)). For the same molecule, the “herbicidal effect, E: Setaria viridis” value [10] was 4 (Herbicidal rate 70% or more and less than 90%), the “herbicidal effect, F: Avena fatua” value [11] was 4 (Herbicidal rate 70% or more and less than 90%) and the “herbicidal effect, G: Black-grass” value [12] was 5 (Herbicidal rate 90% or more (almost complete death)). For the same molecule, the “herbicidal effect, I: Ambrosia elatior” value [13] was 5 (Herbicidal rate 90% or more (almost complete death)), the “herbicidal effect, f: Beta vulgaris (beet)” value [14] was 5 (Herbicidal rate 90% or more (almost complete death)) and the “herbicidal effect, A: Echinochloa crus-galli” value [15] was 4 (Herbicidal rate 70% or more and less than 90%). For the same molecule, the “herbicidal effect, e: Triticum aestivum (wheat)” value [16] was 5 (Herbicidal rate 90% or more (almost complete death)), the “herbicidal effect, b: corn (Zea mays)” value [17] was 4 (Herbicidal rate 70% or more and less than 90%) and the “herbicidal effect, J: Amaranthus retroflexus” value [18] was 5 (Herbicidal rate 90% or more (almost complete death)). For the same molecule, the “herbicidal effect, H: Abutilon avicennae” value [19] was 4 (Herbicidal rate 70% or more and less than 90%), the “herbicidal effect, L: Polygonum blumei” value [20] was 5 (Herbicidal rate 90% or more (almost complete death)) and the “herbicidal effect, D: Digitaria adscendes” value [21] was 4 (Herbicidal rate 70% or more and less than 90%). For the same molecule, the “herbicidal effect, M: Stellaria media” value [22] was 5 (Herbicidal rate 90% or more (almost complete death)), the “herbicidal effect, c: soybean (Glycine max)” value [23] was 5 (Herbicidal rate 90% or more (almost complete death)) and the “herbicidal effect, K: Chenopodium album” value [24] was 5 (Herbicidal rate 90% or more (almost complete death)). The “herbicidal effect, E: Setaria viridis” value [25] was 4 (Herbicidal rate 70% or more and less than 90%), the “herbicidal effect, F: Avena fatua” value [26] was 5 (Herbicidal rate 90% or more (almost complete death)) and the “herbicidal effect, G: Black-grass” value [27] was 5 (Herbicidal rate 90% or more (almost complete death)). The “herbicidal effect, I: Ambrosia elatior” value [28] was 5 (Herbicidal rate 90% or more (almost complete death)), the “herbicidal effect, f: Beta vulgaris (beet)” value [29] was 5 (Herbicidal rate 90% or more (almost complete death)) and the “herbicidal effect, A: Echinochloa crus-galli” value [30] was 5 (Herbicidal rate 90% or more (almost complete death)). The “herbicidal effect, e: Triticum aestivum (wheat)” value [31] was 5 (Herbicidal rate 90% or more (almost complete death)), the “herbicidal effect, b: corn (Zea mays)” value [32] was 5 (Herbicidal rate 90% or more (almost complete death)) and the “herbicidal effect, J: Amaranthus retroflexus” value [33] was 4 (Herbicidal rate 70% or more and less than 90%). The “herbicidal effect, H: Abutilon avicennae” value [34] was 5 (Herbicidal rate 90% or more (almost complete death)), the “herbicidal effect, L: Polygonum blumei” value [35] was 5 (Herbicidal rate 90% or more (almost complete death)) and the “herbicidal effect, D: Digitaria adscendes” value [36] was 5 (Herbicidal rate 90% or more (almost complete death)). For the same molecule, the “herbicidal effect, d: direct sown rice” value [37] was 5 (Herbicidal rate 90% or more (almost complete death)) and the “herbicidal effect, d: direct sown rice” value [38] was 2 (Herbicidal rate 20% or more and less than 40%).
